Assay results as given in PubChem BioAssay AID330 (DTP/NCI, 2004).
Several values for one entry are separate records, joined by “and”; a condition that tells them apart may be missing. Equal entries are not always repeated. Inconclusive results and toxic doses are left out. Rule for the calls: active = survival T/C of 150% or more; inactive = T/C below 125% in these data.

System: P388 leukemia ip, CD2F1 mice, survival T/C
Assay: NCI In Vivo Anticancer Drug Screen. Data for tumor model P388 Leukemia (intraperitoneal) in CD2F1 (CDF1) mice
Conditions: endpoint: median survival time, higher = longer survival
How it was run: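 Mice carrying the transplanted tumor received test compound or vehicle. Survival was recorded in each group, and the value is the treated-group measurement divided by that of the vehicle-treated control group.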

[1] = dose: 50.0 mg/kg/injection, schedule: Q01DX005 (ip), vehicle: saline with Tween-80
[2] = dose: 50.0 mg/kg/injection, schedule: Q01DX009 (ip), vehicle: saline
[3] = dose: 100.0 mg/kg/injection, schedule: Q01DX009 (ip), vehicle: saline
[4] = dose: 200.0 mg/kg/injection, schedule: Q01DX009 (ip), vehicle: saline
[5] = dose: 6.25 mg/kg/injection, schedule: Q01DX009 (ip), vehicle: saline with Tween-80
[6] = dose: 12.5 mg/kg/injection, schedule: Q01DX009 (ip), vehicle: saline with Tween-80
[7] = dose: 60.0 mg/kg/injection, schedule: Q01DX005 (ip), vehicle: Klucel (hydroxypropylcellulose) (HPC)
[8] = dose: 100.0 mg/kg/injection, schedule: Q01DX005 (ip), vehicle: saline with Tween-80
[9] = dose: 200.0 mg/kg/injection, schedule: Q01DX005 (ip), vehicle: saline with Tween-80
[10] = dose: 100.0 mg/kg/injection, schedule: Q01DX001 (ip), vehicle: Klucel (hydroxypropylcellulose) (HPC)
[11] = dose: 200.0 mg/kg/injection, schedule: Q01DX001 (ip), vehicle: Klucel (hydroxypropylcellulose) (HPC)
[12] = dose: 400.0 mg/kg/injection, schedule: Q01DX001 (ip), vehicle: Klucel (hydroxypropylcellulose) (HPC)
[13] = dose: 25.0 mg/kg/injection, schedule: Q01DX009 (ip), vehicle: saline with Tween-80
[14] = dose: 50.0 mg/kg/injection, schedule: Q01DX009 (ip), vehicle: saline with Tween-80
[15] = dose: 100.0 mg/kg/injection, schedule: Q01DX009 (ip), vehicle: saline with Tween-80
[16] = dose: 200.0 mg/kg/injection, schedule: Q01DX009 (ip), vehicle: saline with Tween-80

Measured: T/C

Cc1ncc(N)c2c1OC(C)(C)OC2
inactive: dose: 12.5 mg/kg/injection, schedule: Q01DX005 (ip), vehicle: saline with Tween-80 102 % of control | dose: 25.0 mg/kg/injection, schedule: Q01DX005 (ip), vehicle: saline with Tween-80 103 % of control | [1] 99 % of control and 101 % of control

COC1=Cc2c(oc3c(C(C)(C)C)cc(OC)cc23)OC(C(C)(C)C)=C1
inactive: [2] 104 % of control | [3] 100 % of control | [4] 100 % of control

C/C(=N\NC(=S)N1CCC1)c1ccccn1
inactive: dose: 1.56 mg/kg/injection, schedule: Q01DX005 (ip), vehicle: other 99 % of control | dose: 3.12 mg/kg/injection, schedule: Q01DX005 (ip), vehicle: other 103 % of control | dose: 6.25 mg/kg/injection, schedule: Q01DX005 (ip), vehicle: other 99 % of control | [5] 95 % of control | dose: 12.5 mg/kg/injection, schedule: Q01DX005 (ip), vehicle: other 94 % of control | [6] 99 % of control | dose: 25.0 mg/kg/injection, schedule: Q01DX005 (ip), vehicle: other 100 % of control

CCOC(=O)c1c[nH]c2c(ccc3cccnc32)c1=O
inactive: dose: 15.0 mg/kg/injection, schedule: Q01DX005 (ip), vehicle: Klucel (hydroxypropylcellulose) (HPC) 99 % of control | dose: 30.0 mg/kg/injection, schedule: Q01DX005 (ip), vehicle: Klucel (hydroxypropylcellulose) (HPC) 99 % of control | [2] 99 % of control | [7] 99 % of control and 97 % of control | [3] 117 % of control | [4] 99 % of control

ClCCN(Cc1ccccc1)Cc1ccccc1
inactive: dose: 3.13 mg/kg/injection, schedule: Q01DX009 (ip), vehicle: saline with Tween-80 104 % of control | [5] 119 % of control | [6] 123 % of control

Cc1cccc(N2CC3CC4C=CC3(C2)O4)c1 (centres undefined)
inactive: [7] 96 % of control | dose: 120.0 mg/kg/injection, schedule: Q01DX005 (ip), vehicle: Klucel (hydroxypropylcellulose) (HPC) 96 % of control | dose: 240.0 mg/kg/injection, schedule: Q01DX005 (ip), vehicle: Klucel (hydroxypropylcellulose) (HPC) 96 % of control

c1ccc2c(OCC3CO3)c3ccccc3nc2c1 (centres undefined)
inactive: [1] 118 % of control | [8] 108 % of control | [9] 102 % of control

Clc1ccc(/C=C/c2ccccn2)cc1
inactive: [1] 91 % of control | [8] 90 % of control | [9] 91 % of control

CCOc1cc2c(cc1Cc1c(OC)cc(OC)cc1OC)OCO2
inactive: dose: 60.0 mg/kg/injection, schedule: Q01DX005 (ip), vehicle: saline with Tween-80 90 % of control | dose: 240.0 mg/kg/injection, schedule: Q01DX005 (ip), vehicle: saline with Tween-80 99 % of control

O=C(O)Cc1cn2cc(Cl)ccc2n1
inactive: [10] 102 % of control | [11] 101 % of control | [12] 95 % of control

CC1(C)CC(C)(OC(=O)c2ccc(Cl)cc2)N=N1 (centres undefined)
inactive: [6] 104 % of control | [13] 103 % of control | [14] 99 % of control | [15] 99 % of control | [16] 98 % of control

COc1ccc2c(c1CCl)C(=O)OC2
inactive: [6] 96 % of control | [13] 111 % of control | [14] 101 % of control and 89 % of control

O=C1C2CSCN2C(=O)C2CSCN12 (centres undefined)
inactive: [10] 102 % of control | [11] 99 % of control | [12] 105 % of control

CCOC(=O)C1=NNC(C#N)C1 (centres undefined)
inactive: [1] 101 % of control | [8] 97 % of control | [9] 99 % of control

Cc1cc(C2(c3cc(C)c(O)c(C)c3)c3ccccc3-c3ccccc32)cc(C)c1O
inactive: dose: 50.0 mg/kg/injection, schedule: Q01DX009 (ip), vehicle: Klucel (hydroxypropylcellulose) (HPC) 99 % of control | dose: 100.0 mg/kg/injection, schedule: Q01DX009 (ip), vehicle: Klucel (hydroxypropylcellulose) (HPC) 99 % of control | dose: 200.0 mg/kg/injection, schedule: Q01DX009 (ip), vehicle: Klucel (hydroxypropylcellulose) (HPC) 96 % of control

O=C1N/C(=N\O)C(F)C(NO)N1 (centres undefined)
inactive: dose: 11.25 mg/kg/injection, schedule: Q04DX002 (ip), vehicle: distilled water + Tween-80 94 % of control | dose: 22.5 mg/kg/injection, schedule: Q04DX002 (ip), vehicle: distilled water + Tween-80 103 % of control | dose: 45.0 mg/kg/injection, schedule: Q04DX002 (ip), vehicle: distilled water + Tween-80 99 % of control | dose: 90.0 mg/kg/injection, schedule: Q04DX002 (ip), vehicle: distilled water + Tween-80 103 % of control | dose: 180.0 mg/kg/injection, schedule: Q04DX002 (ip), vehicle: distilled water + Tween-80 93 % of control | dose: 360.0 mg/kg/injection, schedule: Q04DX002 (ip), vehicle: distilled water + Tween-80 93 % of control

CNC(=S)N/N=C(\C)c1ccco1
inactive: dose: 100.0 mg/kg/injection, schedule: Q01DX001 (ip), vehicle: saline 104 % of control | dose: 200.0 mg/kg/injection, schedule: Q01DX001 (ip), vehicle: saline 97 % of control | dose: 400.0 mg/kg/injection, schedule: Q01DX001 (ip), vehicle: saline 97 % of control

COC(CNCc1ccccc1)OC
inactive: dose: 37.5 mg/kg/injection, schedule: Q04DX003 (ip), vehicle: saline 98 % of control | dose: 75.0 mg/kg/injection, schedule: Q04DX003 (ip), vehicle: saline 104 % of control | dose: 150.0 mg/kg/injection, schedule: Q04DX003 (ip), vehicle: saline 95 % of control | dose: 300.0 mg/kg/injection, schedule: Q04DX003 (ip), vehicle: saline 98 % of control

COc1ccc(CC2c3cc4c(cc3CCN2C)OCO4)c(C=O)c1OC (centres undefined)
inactive: dose: 12.5 mg/kg/injection, schedule: Q01DX001 (ip), vehicle: saline + alcohol 93 % of control | dose: 25.0 mg/kg/injection, schedule: Q01DX001 (ip), vehicle: saline + alcohol 97 % of control | dose: 50.0 mg/kg/injection, schedule: Q01DX001 (ip), vehicle: saline + alcohol 99 % of control

COc1ccc(Cc2cc(N=O)c(OC)cc2O)cc1
inactive: [1] 90 % of control | [8] 87 % of control

COc1ccc2c(c1)CCC1C2=CC(=O)/C1=C\[O-].COc1ccc2c(c1)CCC1C2=CC(=O)/C1=C\[O-].[Cu+2] (centres undefined)
inactive: dose: 33.0 mg/kg/injection, schedule: Q04DX003 (ip), vehicle: saline with Tween-80 109 % of control | dose: 50.0 mg/kg/injection, schedule: Q04DX003 (ip), vehicle: saline with Tween-80 100 % of control and 90 % of control | dose: 75.0 mg/kg/injection, schedule: Q04DX003 (ip), vehicle: saline with Tween-80 100 % of control

CCC1SC(=S)NC1=O (centres undefined)
inactive: [1] 92 % of control | [8] 92 % of control

Cc1ccc(C)c(NC(=O)Oc2cc(C)c(Cl)c(C)c2)c1
inactive: [14] 101 % of control | [15] 105 % of control | [16] 98 % of control
